# Data reported in ChEMBL document CHEMBL5260795, “Antifungal potential of marine natural products” (Eur J Med Chem, 2017).
# Tests used:
# [1] = system: Aspergillus flavus; assay: Antifungal activity against Aspergillus flavus assessed as inhibition of fungal growth; format: functional, organism-based
# [2] = system: Aspergillus; assay: Antimicrobial activity against Aspergillus; format: functional
# [3] = system: Pyricularia oryzae; assay: Antifungal activity against Pyricularia oryzae assessed as inhibition of fungal growth; format: functional
# [4] = system: Alternaria brassicae; assay: Antifungal activity against Alternaria brassicae assessed as inhibition of fungal growth; format: functional
# [5] = system: Saprolegnia parasitica; assay: Antifungal activity against Saprolegnia parasitica IFO8978 assessed as inhibition of fungal growth; format: functional
# [6] = system: Globisporangium ultimum; assay: Antifungal activity against Pythium ultimum IFO32210 assessed as inhibition of fungal growth; format: functional
# [7] = system: Botrytis cinerea; assay: Antifungal activity against Botrytis cinerea AJ 117140 assessed as inhibition of fungal growth; format: functional
# [8] = system: Pyricularia oryzae; assay: Antifungal activity against Pyricularia oryzae; format: functional
# [9] = system: Alternaria solani; assay: Antifungal activity against Alternaria solani; format: functional
# [10] = system: Candida albicans; assay: Antifungal activity against amphotericin-B-resistant Candida albicans assessed as zone of inhibition 1 ug/disk; format: functional; conditions: dose 1 µg
# [11] = system: Candida albicans; assay: Antifungal activity against Candida albicans ATCC 24433; format: functional
# [12] = system: Candida albicans; assay: Antifungal activity against Candida albicans; format: functional, organism-based
# [13] = system: Trichophyton rubrum; assay: Antimicrobial activity against Trichophyton rubrum; format: functional, organism-based
# [14] = system: Cryptococcus neoformans; assay: Antifungal activity against Cryptococcus neoformans; format: functional, organism-based
# [15] = system: Saccharomyces cerevisiae; assay: Antifungal activity against Saccharomyces cerevisiae assessed as inhibition of fungal growth; format: functional, organism-based
# [16] = system: Candida tropicalis; assay: Antifungal activity against Candida tropicalis assessed as fungal growth inhibition; format: functional
# [17] = system: Nannizzia gypsea; assay: Antifungal activity against Microsporum gypseum ATCC31388; format: functional
# [18] = system: Candida albicans; assay: Antifungal activity against Candida albicans ATCC76615 assessed as inhibition of fungal growth by atomatic microplate reader analysis; format: functional
# [19] = system: Trichophyton rubrum; assay: Antifungal activity against Trichophyton rubrum assessed as inhibition of fungal growth by atomatic microplate reader analysis; format: functional
# [20] = system: Candida tropicalis; assay: Antifungal activity against clinical strain Candida tropicalis assessed as inhibition of fungal growth by atomatic microplate reader analysis; format: functional
# [21] = system: Cryptococcus neoformans; assay: Antifungal activity against Cryptococcus neoformans ATCC32609 assessed as inhibition of fungal growth by atomatic microplate reader analysis; format: functional
# [22] = system: Pichia kudriavzevii; assay: Antifungal activity against clinical strain Candida krusei assessed as inhibition of fungal growth by atomatic microplate reader analysis; format: functional
# [23] = system: Aspergillus fumigatus; assay: Antifungal activity against clinical strain Aspergillus fumigatus assessed as inhibition of fungal growth by atomatic microplate reader analysis; format: functional
# [24] = system: Candida albicans; assay: Antimicrobial activity against Candida albicans; format: functional
# [25] = system: Rhodotorula glutinis; assay: Antimicrobial activity against Rhodotorula glutinis; format: functional
# [26] = system: Saccharomyces cerevisiae; assay: Antimicrobial activity against Saccharomyces cerevisiae; format: functional
smiles,measurement,setting,value
CC[C@H](C)/C=C(C)/C=C/C1=CC2=C(Cl)C(=O)[C@@](C)(OC(C)=O)C(=O)C2=CO1,IC50,[1],3.39 µg/mL
COc1c(Br)cc(Br)cc1Oc1c(O)cc(Br)cc1Br,MIC,[2],1.95 µg/mL
CC(C)=CCn1cc(CC2NC(=O)C(C(C)C)NC2=O)c2ccccc21 (configuration not stated),MIC,[3],0.127 µg/mL
COc1ccc2c(c1OC)O[C@]1(C(=O)N3O[C@@H]4C(=CC=C[C@H]4O)C[C@@]3(SC)C(=O)N1C)[C@@H]2SC,MIC,[4],4 µg/mL
C=CC1OC1(C)CC(C)/C(C)=C/C=C(C)\C=C(OC)\C(=C/C(=O)OC)OC (configuration not stated),MIC,[5],0.1 µg/mL
same,MIC,[6],0.4 µg/mL
same,MIC,[7],3.1 µg/mL
CC1CC[C@@H](O)/C=C/CC[C@H](O)C[C@@H](O)C/C=C\C=C\[C@@H](O)C/C=C/C=C\C(=O)O1 (some centres not stated),MIC,[8],0.8 µg/mL
same,MIC,[9],0.8 µg/mL
CCC(C)CC(C)[C@@H](O)[C@@H](C)C(=O)N[C@H](CN)C(=O)N[C@@H]([C@H](O)[C@H](O)C(=O)N[C@H](C(=O)N[C@H]1C(=O)N[C@H]([C@@H](C)O)C(=O)N[C@H](CCCN)C(=O)N[C@@H](CC(C)C)C(=O)N(C)[C@@H](CCC(N)=O)C(=O)NC(C(OC)C(N)=O)C(=O)N[C@H](CC(N)=O)C(=O)N(C)[C@@H](CC(C)C)C(=O)O[C@@H]1C)[C@@H](C)C(C)C(N)=O)C(C)(C)O (some centres not stated),inhibition zone (IZ),[10],8 mm
CO[C@H](c1ccc(O)cc1)[C@@H](NC(=O)[C@H](CCC(N)=O)NC(=O)[C@H](CC(C)C)NC(=O)[C@@H](CCCNC(=N)N)NC(=O)[C@H](NC(=O)[C@H](NC(=O)[C@@H](NC(=O)[C@H](O)[C@H](O)[C@H](CCCNC(=N)N)NC(=O)[C@@H](C)NC(=O)[C@H](C)[C@H](O)[C@H](C)CC(C)C)[C@@H](C)CC(N)=O)[C@@H](C)O)[C@@H](C)O)C(=O)N(C)[C@@H](C)C(=O)O,MIC,[11],0.15 µg/mL
C=C[C@@H]1C[C@H](C)C[C@H](C)[C@H]1c1c(O)ccn(O)c1=O,IC50,[12],6.9 µg/mL
same,IC50,[13],1.07 µg/mL
CCC(C)CC(C)/C=C(C)/C=C/CC(C)C(O)C(C)/C=C(C)/C=C/C(O)C(C)c1cc(O)c(C2OC(CO)CC(O)C2O)c(=O)o1 (configuration not stated),IC50,[14],1.56 µg/mL
same,IC50,[15],1.56 µg/mL
C=C(C)CCC[C@@]1(C)OC(=O)[C@]23CC=C4C(=CC[C@H]5C(C)(C)[C@@H](O[C@@H]6OC[C@@H](O[C@@H]7O[C@H](CO)[C@@H](O)[C@H](O[C@@H]8O[C@H](CO)[C@@H](O)[C@H](O)[C@H]8O)[C@H]7O)[C@H](O)[C@H]6O[C@@H]6O[C@H](CO)[C@@H](O[C@@H]7OC[C@@H](O)[C@H](O[C@@H]8O[C@H](CO)[C@@H](O)[C@H](OC)[C@H]8O)[C@H]7O)[C@H](O)[C@H]6O)CC[C@]45C)[C@@]2(C)CC(=O)[C@@H]13,MIC,[16],1.4 µM
same,MIC,[17],1.4 µM
CO[C@@H]1[C@@H](O)[C@H](O[C@@H]2[C@@H](O)[C@H](O[C@@H]3[C@@H](O)[C@H](O)[C@@H](O[C@H]4[C@H](O[C@H]5CC[C@@H]6C7=C[C@H](O)[C@]89C(=O)O[C@@](C)(CCCC(C)C)[C@H]8CC[C@@]9(C)[C@@H]7CC[C@H]6C5(C)C)OC[C@@H](O[C@@H]5O[C@H](CO)[C@@H](O)[C@H](O[C@@H]6O[C@H](CO)[C@@H](O)[C@H](OC)[C@H]6O)[C@H]5O)[C@@H]4O)O[C@H]3C)O[C@H](CO)[C@H]2O)O[C@H](CO)[C@H]1O,MIC,[18],0.7 µM
same,MIC,[19],0.7 µM
same,MIC,[20],0.7 µM
same,MIC,[21],0.7 µM
same,MIC,[22],0.7 µM
same,MIC,[23],0.7 µM
CO[C@@H]1[C@@H](O)[C@H](O[C@@H]2[C@@H](O)[C@H](O[C@@H]3[C@@H](O)[C@H](O)[C@@H](O[C@H]4[C@H](O[C@H]5CC[C@@H]6C7=C[C@H](O)[C@]89C(=O)O[C@@](C)(CCC=C(C)C)[C@H]8CC[C@@]9(C)[C@@H]7CC[C@H]6C5(C)C)OC[C@@H](O[C@@H]5O[C@H](CO)[C@@H](O)[C@H](O[C@@H]6O[C@H](CO)[C@@H](O)[C@H](OC)[C@H]6O)[C@H]5O)[C@@H]4O)O[C@H]3C)O[C@H](CO)[C@H]2O)O[C@H](CO)[C@H]1O,MIC,[18],0.7 µM
same,MIC,[19],0.7 µM
same,MIC,[20],0.7 µM
same,MIC,[21],0.7 µM
same,MIC,[22],0.7 µM
same,MIC,[23],0.7 µM
CO[C@H]1C(=O)N[C@]2(O)CC(=O)N(C)CC(=O)N[C@H](Cc3c[nH]c4cc(Cl)ccc34)C(=O)NCC(=O)NC[C@H](O)CC(=O)N[C@H]([C@@H](O)[C@@H](O)C/C=C/C=C/c3ccccc3)[C@@H](O)C(=O)N[C@@H]12,MIC,[24],3.1 µg/mL
same,MIC,[25],0.6 µg/mL
same,MIC,[26],1.6 µg/mL
